Results from ChEMBL document CHEMBL1909046, “DrugMatrix in vitro pharmacology data”.

Key:
[1] = molecular target: 5-hydroxytryptamine receptor 6 (Homo sapiens, UniProt P50406); assay type: cell membranes, HeLa, Membrane; conditions: hela; note: in other assays of this panel Not Active means under 50% inhibition at 10 µM
Adenosine receptor A2a = Adenosine receptor A2a (Homo sapiens, UniProt P29274); test: DRUGMATRIX: Adenosine A2A radioligand binding (ligand: […]); assay type: cell membranes, HEK293, Membrane; conditions: Not Active = under 50% inhibition at 10 µM
Progesterone receptor = molecular target: T1, Progesterone receptor (Bos taurus, UniProt Q690N0); test: DRUGMATRIX: Progesterone radioligand binding (ligand: [3H] R-5020); assay type: tissue-based, Uterus; conditions: Not Active = under 50% inhibition at 10 µM
T1 sequence (Q690N0 whole entry): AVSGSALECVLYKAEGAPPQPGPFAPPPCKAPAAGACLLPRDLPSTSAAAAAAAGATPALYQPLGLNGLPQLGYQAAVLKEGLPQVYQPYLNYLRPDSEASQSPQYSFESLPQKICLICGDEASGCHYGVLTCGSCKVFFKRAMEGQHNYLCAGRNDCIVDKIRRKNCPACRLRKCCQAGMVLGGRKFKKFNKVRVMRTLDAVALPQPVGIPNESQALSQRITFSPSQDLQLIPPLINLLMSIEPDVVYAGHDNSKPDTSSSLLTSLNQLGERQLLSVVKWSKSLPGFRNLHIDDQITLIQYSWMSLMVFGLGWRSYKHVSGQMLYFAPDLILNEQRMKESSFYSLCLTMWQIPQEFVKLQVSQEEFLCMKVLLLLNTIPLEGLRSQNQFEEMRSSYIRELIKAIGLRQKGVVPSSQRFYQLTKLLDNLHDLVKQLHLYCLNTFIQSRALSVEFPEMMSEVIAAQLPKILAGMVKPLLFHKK

Substance-K receptor = molecular target: T2, Substance-K receptor (Homo sapiens, UniProt P21452); assay type: cell membranes, CHO, Membrane; note: in other assays of this panel Not Active means under 50% inhibition at 10 µM
T2 sequence (P21452 whole entry): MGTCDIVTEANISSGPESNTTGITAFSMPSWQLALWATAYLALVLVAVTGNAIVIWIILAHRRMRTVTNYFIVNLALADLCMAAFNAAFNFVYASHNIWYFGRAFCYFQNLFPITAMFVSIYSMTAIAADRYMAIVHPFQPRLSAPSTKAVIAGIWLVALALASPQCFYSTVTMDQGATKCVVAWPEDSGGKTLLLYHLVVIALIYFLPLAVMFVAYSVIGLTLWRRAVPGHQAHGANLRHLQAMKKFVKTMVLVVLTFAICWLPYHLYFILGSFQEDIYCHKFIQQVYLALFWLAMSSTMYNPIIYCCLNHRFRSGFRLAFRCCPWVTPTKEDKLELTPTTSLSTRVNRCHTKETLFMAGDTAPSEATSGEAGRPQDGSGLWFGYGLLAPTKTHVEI

Calcitonin receptor = molecular target: T3, Calcitonin receptor (Homo sapiens, UniProt P30988); assay type: cell membranes, Membrane; conditions: t47d; note: in other assays of this panel Not Active means under 50% inhibition at 10 µM
T3 sequence (P30988 whole entry): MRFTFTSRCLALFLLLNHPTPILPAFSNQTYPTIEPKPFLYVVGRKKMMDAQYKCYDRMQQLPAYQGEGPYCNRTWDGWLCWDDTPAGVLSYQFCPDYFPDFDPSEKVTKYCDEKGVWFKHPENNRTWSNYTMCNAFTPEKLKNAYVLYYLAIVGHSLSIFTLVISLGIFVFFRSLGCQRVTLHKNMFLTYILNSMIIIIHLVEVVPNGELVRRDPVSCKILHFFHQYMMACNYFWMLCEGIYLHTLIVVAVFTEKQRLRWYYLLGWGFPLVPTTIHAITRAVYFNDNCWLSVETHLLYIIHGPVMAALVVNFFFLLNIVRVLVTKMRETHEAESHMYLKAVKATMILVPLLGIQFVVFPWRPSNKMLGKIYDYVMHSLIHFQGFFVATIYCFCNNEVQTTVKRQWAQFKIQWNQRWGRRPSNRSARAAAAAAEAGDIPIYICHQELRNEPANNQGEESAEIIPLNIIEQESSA

Chain of Adenosine receptor A2a (P29274 whole entry): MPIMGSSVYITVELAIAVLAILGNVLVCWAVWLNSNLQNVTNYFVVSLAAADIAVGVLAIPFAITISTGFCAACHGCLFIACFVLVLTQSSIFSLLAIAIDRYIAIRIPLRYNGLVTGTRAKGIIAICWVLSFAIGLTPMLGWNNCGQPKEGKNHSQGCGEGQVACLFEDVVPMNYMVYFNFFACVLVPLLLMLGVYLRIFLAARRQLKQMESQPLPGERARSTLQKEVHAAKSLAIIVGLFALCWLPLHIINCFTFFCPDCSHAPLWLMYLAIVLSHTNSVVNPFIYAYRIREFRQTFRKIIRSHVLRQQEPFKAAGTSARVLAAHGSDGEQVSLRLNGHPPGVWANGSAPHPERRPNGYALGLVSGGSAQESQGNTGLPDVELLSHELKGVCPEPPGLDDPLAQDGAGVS
Chain of 5-hydroxytryptamine receptor 6 (P50406 whole entry): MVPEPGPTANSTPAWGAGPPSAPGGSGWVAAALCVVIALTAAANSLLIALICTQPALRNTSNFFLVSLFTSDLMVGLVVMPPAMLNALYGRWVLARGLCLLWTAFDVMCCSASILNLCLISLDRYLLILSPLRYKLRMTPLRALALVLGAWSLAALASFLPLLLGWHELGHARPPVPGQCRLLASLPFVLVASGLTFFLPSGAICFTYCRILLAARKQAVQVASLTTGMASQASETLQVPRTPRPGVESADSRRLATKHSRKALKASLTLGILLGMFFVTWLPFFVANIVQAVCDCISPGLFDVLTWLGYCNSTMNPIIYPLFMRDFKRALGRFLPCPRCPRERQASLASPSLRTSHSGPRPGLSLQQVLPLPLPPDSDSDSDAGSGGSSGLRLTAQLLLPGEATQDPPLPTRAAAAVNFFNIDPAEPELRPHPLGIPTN

Row | Molecule | IC50 [1] | IC50 (Adenosine receptor A2a; hek293) | IC50 (Progesterone receptor) | IC50 (Substance-K receptor; cho) | IC50 (Calcitonin receptor) | also measured
1 | COc1cc([C@@H]2c3cc4c(cc3[C@H](O)[C@H]3COC(=O)[C@H]23)OCO4)cc(OC)c1OC [PODOFILOX] | Not Active | Not Active | Not Active | Not Active | Not Active | 
2 | NC(=O)CN1CCCC1=O | Not Active | Not Active | Not Active | Not Active | Not Active | 
3 | POVIDONE | Not Active | Not Active | Not Active | Not Active | Not Active | Ki [1]: Not Active; Ki (Adenosine receptor A2a; hek293): Not Active; Ki (Progesterone receptor): Not Active; Ki (Substance-K receptor; cho): Not Active; Ki (Calcitonin receptor): Not Active
4 | Cc1c(N)nc([C@H](CC(N)=O)NC[C@H](N)C(N)=O)nc1C(=O)N[C@H](C(=O)N[C@H](C)[C@@H](O)[C@H](C)C(=O)N[C@H](C(=O)NCCc1nc(-c2nc(C(=O)NCCC[S+](C)C)cs2)cs1)[C@@H](C)O)[C@@H](O[C@@H]1O[C@@H](CO)[C@@H](O)[C@H](O)[C@@H]1O[C@H]1O[C@H](CO)[C@@H](O)[C@H](OC(N)=O)[C@@H]1O)c1c[nH]cn1.[Br-] [BLEOMYCIN A2] | Not Active | Not Active | Not Active | Not Active | Not Active | 
5 | CN(Cc1cc(Br)cc(Br)c1N)C1CCCCC1 [BROMHEXINE] | Not Active | Not Active | Not Active | Not Active | Not Active | 
6 | Nc1ccc(Cc2ccc(N)cc2)cc1 | Not Active | Not Active | Not Active | Not Active | Not Active | 
7 | C[C@]12CC[C@@H](O)C[C@@H]1CC[C@@H]1[C@@H]2CC[C@]2(C)C(=O)CC[C@@H]12 [ANDROSTERONE] | Not Active | Not Active | Not Active | Not Active | Not Active | 
8 | O=C(O)c1ccccc1 [BENZOIC ACID] | Not Active | Not Active | Not Active | Not Active | Not Active | 
9 | CC(=O)Nc1ccc2c(c1)Cc1ccccc1-2 [2-ACETYLAMINOFLUORENE] | Not Active | Not Active | Not Active | Not Active | Not Active | 
10 | C[C@H](C(=O)O)c1ccc2oc(-c3ccc(F)cc3)nc2c1 [FLUNOXAPROFEN] | Not Active | Not Active | Not Active | Not Active | Not Active | 
11 | C[C@H]1C[C@H]2[C@@H]3CCC4=CC(=O)C=C[C@]4(C)[C@@]3(F)[C@@H](O)C[C@]2(C)[C@@]1(O)C(=O)CO [BETAMETHASONE] | Not Active | Not Active | Not Active | Not Active | Not Active | 
12 | CN(CCOc1ccc(C[C@H](Nc2ccccc2C(=O)c2ccccc2)C(=O)O)cc1)c1ccccn1 | Not Active |  |  |  | Not Active | IC50 (Adenosine receptor A2a; read-out: IC50): 37.3 µM; Ki (Adenosine receptor A2a; read-out: Ki): 20.9 µM; IC50 (Progesterone receptor; read-out: IC50): 30.6 µM; Ki (Progesterone receptor; read-out: Ki): 3.99 µM; IC50 (Substance-K receptor; read-out: IC50): 14.5 µM; Ki (Substance-K receptor; read-out: Ki): 4.84 µM
13 | NS(=O)(=O)c1cc(C(=O)O)c(NCc2ccco2)cc1Cl [FUROSEMIDE] | Not Active | Not Active | Not Active | Not Active | Not Active | 
14 | CCN1CCN(c2cc3c(cc2F)c(=O)c(C(=O)O)cn3C2CC2)CC1 [ENROFLOXACIN] | Not Active | Not Active | Not Active | Not Active | Not Active | 
15 | C[N+](C)(C)CCOP(=O)([O-])OC[C@H](O)CO | Not Active | Not Active | Not Active | Not Active | Not Active | 
16 | O=C(Nc1ccc(Cl)c(Cl)c1)c1cc(Cl)cc(Cl)c1O [3,3',4',5-TETRACHLOROSALICYLANILIDE] | Not Active | Not Active | Not Active | Not Active | Not Active | 
